The IC50 is the midpoint of a concentration-inhibition curve.

From US20130116227A1, “BIARYL AMIDE DERIVATIVE OR PHARMACEUTICALLY ACCEPTABLE SALT THEREOF” (DAINIPPON SUMITOMO PHARMA CO., LTD., priority 2010, published 2013) come the findings set out here.

The target in this test is T1, aldosterone receptor (Rattus norvegicus, UniProt P22199).
T1 construct: centrifuged at 105,000 g for 30 minutes, and then a supernatant was collected as a renal soluble fraction; from tissue; host or cells: rat kidney (adrenalectomized rat), 105,000 g supernatant (cytosol)
T1 sequence (P22199 1-981): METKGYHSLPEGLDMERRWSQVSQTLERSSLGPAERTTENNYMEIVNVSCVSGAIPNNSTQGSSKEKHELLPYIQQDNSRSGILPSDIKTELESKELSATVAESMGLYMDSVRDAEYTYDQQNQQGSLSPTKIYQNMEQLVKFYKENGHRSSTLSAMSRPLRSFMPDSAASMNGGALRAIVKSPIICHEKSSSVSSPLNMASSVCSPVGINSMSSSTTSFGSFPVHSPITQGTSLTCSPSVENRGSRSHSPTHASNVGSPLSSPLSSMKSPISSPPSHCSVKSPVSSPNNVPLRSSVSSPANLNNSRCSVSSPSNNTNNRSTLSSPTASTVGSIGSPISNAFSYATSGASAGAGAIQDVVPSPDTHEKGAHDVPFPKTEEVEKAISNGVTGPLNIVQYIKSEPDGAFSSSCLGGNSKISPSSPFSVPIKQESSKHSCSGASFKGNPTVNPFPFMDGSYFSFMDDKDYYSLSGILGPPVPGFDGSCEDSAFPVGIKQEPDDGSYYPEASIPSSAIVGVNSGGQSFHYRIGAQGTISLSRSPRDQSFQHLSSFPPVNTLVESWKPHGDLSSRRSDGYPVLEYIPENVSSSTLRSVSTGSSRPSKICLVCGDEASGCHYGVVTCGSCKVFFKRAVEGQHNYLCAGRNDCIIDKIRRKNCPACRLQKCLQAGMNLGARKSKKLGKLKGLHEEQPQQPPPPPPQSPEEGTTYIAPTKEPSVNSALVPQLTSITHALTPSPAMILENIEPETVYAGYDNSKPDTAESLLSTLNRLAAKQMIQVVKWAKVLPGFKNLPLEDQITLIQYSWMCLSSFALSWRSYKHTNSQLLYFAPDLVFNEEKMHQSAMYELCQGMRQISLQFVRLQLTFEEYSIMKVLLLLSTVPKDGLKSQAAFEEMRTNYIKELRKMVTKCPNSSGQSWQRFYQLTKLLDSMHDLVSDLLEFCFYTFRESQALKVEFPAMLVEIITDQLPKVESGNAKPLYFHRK
Kind of test: Binding inhibition test for aldosterone receptor ([3H]aldosterone, rat renal soluble fraction). The settings on record: [3H]aldosterone 2 nM, rat renal soluble fraction, in the presence of 2 μM RU-486, 4° C. about 18 hours; read-out: MR IC50. On the procedure: Binding Inhibition Test for Aldosterone Receptor
A rat was layed open in flank regions (on both sides) to remove both adrenal glands. After stitching up the incision, the rat was returnd to a breeding cage again. After removing the kidney from the rat reared for about 3 to 5 days, the kidney was homogenized in 0.1 M Tris-HCl, 0.25M sucrose, 0.1M Na2MoO4 and 2 mM DTT buffer solution (pH7.4). The resultant was centrifuged at 105,000 g for 30 minutes, and then a supernatant was collected as a renal soluble fraction.
The rat renal soluble fraction (0.5 to 1.5 mg), a labeled ligand [^3H] aldosterone (2 nM) and a test article were reacted in the presence of 2 μM RU-486 (glucocorticoid receptor antagonist) in 100 μL of total amounts at 4° C. for about 18 hours. Afterwards, to the reaction solution was added 50 μL of 5% dextran-coated activated charcoal, and the mixture was immingled, and then centrifuged at 3,000 g for 5 minutes. Then, a supernatant (100 μL) was collected and mixed with a liquid scintillator ACS-II (Amersham) (3.5 mL), and then analyzed its radioactivity by a liquid scintillation counter (manufactured by Packard, Tri Carb 2700TR). A non-specific binding was obtained by addition of 2 μM aldosterone to a reaction solution. […]
Binding inhibition rate (%)=100−{(B−N)/(B0−N)}×100
B: labeled ligand binding amounts in the presence of a test article and a labeled ligand
B0: labeled ligand binding amounts in the absence of a test article
N: labeled ligand binding amounts in the presence of excess aldosterone (2 μM)
Test example 1 was carried out for compounds obtained in the Examples.
With `COc1cc(NC(=O)c2ccc(-c3ccccc3C(F)(F)F)c(C)c2)ccc1S(N)(=O)=O` [Example 7], the 50% inhibitory concentration (IC50) was 350 nM. Under `COc1cc(NC(=O)c2ccc(-c3ccccc3C(F)(F)F)cc2)ccc1S(N)(=O)=O` [Example 10] stands 500 nM; under `COc1cc(NC(=O)c2ccc(-c3ccccc3OC(F)(F)F)cc2)ccc1S(N)(=O)=O` [Example 12], 610 nM; under `COc1cc(NC(=O)c2ccc(-c3ccccc3C)cc2)ccc1S(N)(=O)=O` [Example 14], 4700 nM. Consider `COc1cc(NC(=O)c2ccc(-c3ccc(F)cc3C(F)(F)F)cc2)ccc1S(N)(=O)=O` [Example 17], for which the half-inhibitory concentration (IC50) amounted to 1700 nM. As for `COC(=O)c1ccccc1-c1ccc(C(=O)Nc2ccc(S(N)(=O)=O)c(OC)c2)cc1` [Example 19], the half-maximal inhibitory concentration (IC50) is 3300 nM. Under `CCOC(=O)c1ccccc1-c1ccc(C(=O)Nc2ccc(S(N)(=O)=O)c(OC)c2)cc1` [Example 20] stands 550 nM; under `COc1cc(NC(=O)c2ccc(-c3ccccc3CN3CCOCC3)cc2)ccc1S(N)(=O)=O` [Example 22], 1600 nM. Under `COC(=O)c1cc(OC)ccc1-c1ccc(C(=O)Nc2ccc(S(N)(=O)=O)c(OC)c2)cc1` [Example 24] stands 2400 nM. Under `COc1cc(NC(=O)c2ccc(-c3ccc(O)cc3C(F)(F)F)cc2)ccc1S(N)(=O)=O` [Example 26] stands 490 nM; under `COCc1ccccc1-c1ccc(C(=O)Nc2ccc(S(N)(=O)=O)c(OC)c2)cc1` [Example 28], 3000 nM; under `COc1cc(NC(=O)c2ccc(-c3ccccc3C(=O)OC(C)(C)C)cc2)ccc1S(N)(=O)=O` [Example 31], 250 nM.

As for `COc1cc(NC(=O)c2ccc(-c3ccccc3C3CCCCC3)cc2)ccc1S(N)(=O)=O` [Example 35], the IC50 worked out at 350 nM. For `COc1cc(NC(=O)c2ccc(-c3ccccc3C(C)C)cc2)ccc1S(N)(=O)=O` [Example 36], the IC50 was determined as 1400 nM. As for `COc1cc(NC(=O)c2ccc(-c3ccccc3OC(C)C)cc2)ccc1S(N)(=O)=O` [Example 39], the figure is 1200 nM.

`COc1cc(NC(=O)c2ccc(-c3ccccc3OC(F)(F)C(F)F)cc2)ccc1S(N)(=O)=O` [Example 40]: the 50% inhibitory concentration (IC50) came out at 390 nM. Under `COc1cc(NC(=O)c2ccc(-c3ccccc3-c3cccs3)cc2)ccc1S(N)(=O)=O` [Example 42] stands less than 1000 nM.

Consider `COc1cc(NC(=O)c2ccc(-c3ccccc3-c3nc(C)no3)cc2)ccc1S(N)(=O)=O` [Example 46], for which the IC50 turned out to be 3000 nM.

In the case of `COc1cc(NC(=O)c2ccc(-c3ccccc3C(F)(F)F)cc2)ccc1S(=O)(=O)N(C)C` [Example 50], the IC50 is 700 nM.

For the molecule `CNS(=O)(=O)c1ccc(NC(=O)c2ccc(-c3ccccc3C(F)(F)F)cc2)cc1OC` [Example 51], the concentration for half-maximal inhibition (IC50) stood at 200 nM. Under `CCc1ccccc1-c1ccc(C(=O)Nc2ccc(S(N)(=O)=O)c(OC)c2)cc1` [Example 56] stands 520 nM.

Consider `COc1cc(NC(=O)c2ccc(-c3ccccc3SC)cc2)ccc1S(N)(=O)=O` [Example 57], for which the IC50 worked out at 650 nM. For `COc1cc(C(=O)Nc2ccc(S(N)(=O)=O)c(OC)c2)ccc1-c1ccccc1C(F)(F)F` [Example 59], the IC50 was 260 nM. Under `CCOc1cc(C(=O)Nc2ccc(S(N)(=O)=O)c(OC)c2)ccc1-c1ccccc1C(F)(F)F` [Example 60] stands 200 nM. As for `COc1cc(NC(=O)c2ccc(-c3ccccc3C(F)(F)F)c(OCc3ccccc3)c2)ccc1S(N)(=O)=O` [Example 62], the figure is 1900 nM; as for `CC(=O)OCc1cc(C(=O)Nc2ccc(S(C)(=O)=O)cc2)ccc1-c1ccccc1C(F)(F)F` [Example 64], 400 nM. Turning to `CS(=O)(=O)c1ccc(NC(=O)c2ccc(-c3ccccc3C(F)(F)F)c(CO)c2)cc1` [Example 65], the 50% inhibitory concentration (IC50) was 250 nM. Under `COc1cc(NC(=O)c2ccc(-c3ccccc3C(F)(F)F)c(COC(C)=O)c2)ccc1S(N)(=O)=O` [Example 68] stands 210 nM. For `COc1cc(NC(=O)c2ccc(-c3ccccc3C(F)(F)F)c(CO)c2)ccc1S(N)(=O)=O` [Example 69], the half-inhibitory concentration (IC50) was 220 nM. Take `COc1cc(NC(=O)c2ccc(-c3ccccc3C(F)(F)F)c(CN(C)C)c2)ccc1S(N)(=O)=O` [Example 72]: the IC50 was found to be 530 nM. As for `COc1cc(NC(=O)c2ccc(-c3ccccc3C(F)(F)F)c(CN3CCCC3)c2)ccc1S(N)(=O)=O` [Example 75], the figure is 880 nM; as for `COc1cc(NC(=O)c2ccc(-c3ccccc3C(F)(F)F)c(CN3CCOCC3)c2)ccc1S(N)(=O)=O` [Example 79], 320 nM. Take `COc1cc(NC(=O)c2ccc(-c3ccccc3C(F)(F)F)c(CCl)c2)ccc1S(N)(=O)=O` [Example 81]: the IC50 came to 120 nM. Under `COc1cc(NC(=O)c2ccc(-c3ccccc3C(F)(F)F)c(CNC(C)C)c2)ccc1S(N)(=O)=O` [Example 85] stands 540 nM; under `COc1cc(NC(=O)c2ccc(-c3ccccc3C(F)(F)F)c(CNC[C@H]3CCCO3)c2)ccc1S(N)(=O)=O` [Example 91], 260 nM. As for `COc1cc(NC(=O)c2ccc(-c3ccccc3C(F)(F)F)c(CNCC3CC3)c2)ccc1S(N)(=O)=O` [Example 92], the figure is 410 nM. As for `COc1cc(NC(=O)c2ccc(-c3ccccc3C(F)(F)F)c(CN3CCC3)c2)ccc1S(N)(=O)=O` [Example 94], the IC50 was determined as 820 nM. As for `COc1cc(NC(=O)c2ccc(-c3ccccc3C(F)(F)F)c(COCC3CCCN(C)C3)c2)ccc1S(N)(=O)=O` (centres unmarked) [Example 99], the figure is 2000 nM; as for `COc1cc(NC(=O)c2ccc(-c3ccccc3C(F)(F)F)c(COCCCO)c2)ccc1S(N)(=O)=O` [Example 103], 130 nM. Under `COc1cc(NC(=O)c2ccc(-c3ccccc3C(F)(F)F)c(COCC(OC)OC)c2)ccc1S(N)(=O)=O` [Example 104] stands 82 nM; under `COc1cc(NC(=O)c2ccc(-c3ccccc3C(F)(F)F)c(OCCOCc3ccccc3)c2)ccc1S(N)(=O)=O` [Example 109], 190 nM; under `COc1cc(NC(=O)c2ccc(-c3ccccc3C(F)(F)F)c(OCCO)c2)ccc1S(N)(=O)=O` [Example 121], 520 nM. As for `COc1cc(NC(=O)c2ccc(-c3ccccc3OC(F)(F)F)c(CO)c2)ccc1S(N)(=O)=O` [Example 122], the figure is 60 nM. For the molecule `CCc1ccccc1-c1ccc(C(=O)Nc2ccc(S(N)(=O)=O)c(OC)c2)cc1CO` [Example 126], the IC50 amounted to 310 nM. As for `COc1cc(NC(=O)c2ccc(-c3ccc(F)cc3C(F)(F)F)c(CO)c2)ccc1S(N)(=O)=O` [Example 127], the figure is 220 nM; as for `COc1ccc(-c2ccc(C(=O)Nc3ccc(S(N)(=O)=O)c(OC)c3)cc2CO)c(C(F)(F)F)c1` [Example 128], 140 nM. Regarding `CCNc1cc(C(=O)Nc2ccc(S(N)(=O)=O)c(OC)c2)ccc1-c1ccccc1C(F)(F)F` [Example 131], the IC50 was determined as 170 nM.

As to `CCN(CC)c1cc(C(=O)Nc2ccc(S(N)(=O)=O)c(OC)c2)ccc1-c1ccccc1C(F)(F)F` [Example 132], the half-maximal inhibitory concentration (IC50) is 290 nM.

Take `CS(=O)(=O)c1ccc(NC(=O)c2ccc(-c3ccccc3OC(F)(F)F)c(CN3CCSCC3)c2)cc1` [Example 136]: the IC50 came to 400 nM. As for `CS(=O)(=O)c1ccc(NC(=O)c2ccc(-c3ccccc3OC(F)(F)F)c(CN3CCC(F)(F)C3)c2)cc1` [Example 142], the figure is 420 nM.
